Data taken from patent US20090169538A1, “Methods of Treating or Preventing Tissue Damage Caused by Increased Blood Flow” (REGENERX BIOPHARMACEUTICALS, INC., priority 2006, published 2009).

System: embryonic heart explants
Format: cell-based
Conditions: explants in presence of thymosin β4 with 100 nM wortmanin, p<0.05
Text: To test the effects of secreted thymosin β4 on cardiac cell migration, an embryonic heart explant system designed to assay cell migration and transformation events on a three-dimensional collagen gel was utilized. In this assay, explants of adjacent embryonic myocardium and endocardium from valve-forming regions were placed on a collagen gel with the endocardium adjacent to the collagen.
Outflow tract was dissected from E11.5 wild type mouse embryos and placed on collagen matrices as previously described. After 10 hours of attachment explants were incubated in 30 ng/300 μl thymosin β4 in PBS, PBS alone or thymosin β4 and 100 nM wortmanin. Cultures were carried out for 3-9 days at 37° C. 5% CO2 and fixed in 4% paraformaldehyde in PBS for 10 min at RT. Cells were counted for quantification of migration and distance using at least three separate explants under each condition for endothelial migration and eight separate explants for myocardial migration.
Paraformaldehyde-fixed explants were permeabilized for 10 min at RT with Permeabilize solution (10 mM PIPES pH6.8; 50 mMNaCl; 0.5% Triton X-100; 300 mM Sucrose; 3 mM MgCl2) and rinsed with PBS 2×5 min at RT. After a series of blocking and rinsing steps, detection antibodies were used and explants rinsed and incubated with Equilibration buffer (Anti-Fade kit) 10 min at room temperature. Explants were scooped to a glass microscope slide, covered, and examined by fluorescein microscopy. TUNEL assay was performed using ApopTag Plus Fluorescein In Situ Apoptosis detection kit (Intergen Company # S7111) as recommended.

COC[C@H]1OC(=O)c2coc3c2[C@@]1(C)C1=C(C3=O)[C@@H]2CCC(=O)[C@@]2(C)C[C@H]1OC(C)=O [wortmanin, reference compound]
beating frequency upon inhibition of ILK: significant reduction
myocardial cell migration upon inhibition of ILK: significant reduction
